Data on 13 compounds can be found in patent US20240368158A1, “KINASE MODULATORS, COMPOSITIONS COMPRISING THE KINASE MODULATOR, AND METHODS OF USING THE SAME” (BIOFRONT LTD, priority 2021, published 2024).

For one experiment, the target named is T1, HPK1 (Homo sapiens, UniProt Q92918).
T1 construct: purchased Signal Chem M23-11G-10
T1 sequence (Q92918 1-346 limits assumed): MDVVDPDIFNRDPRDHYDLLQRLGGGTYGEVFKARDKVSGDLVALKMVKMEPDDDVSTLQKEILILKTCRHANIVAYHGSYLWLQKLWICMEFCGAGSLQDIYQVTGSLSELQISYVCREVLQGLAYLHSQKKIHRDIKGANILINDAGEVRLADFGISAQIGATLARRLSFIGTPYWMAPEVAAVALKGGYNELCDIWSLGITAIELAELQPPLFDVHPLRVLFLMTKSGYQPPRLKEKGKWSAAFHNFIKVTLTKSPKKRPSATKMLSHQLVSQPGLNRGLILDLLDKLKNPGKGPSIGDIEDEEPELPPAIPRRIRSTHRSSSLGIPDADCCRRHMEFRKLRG
Briefly: HPK1 enzyme inhibition assay (ADP-Glo). The format is biochemical. To be noted: MBP substrate, ATP. On the procedure:
The compound was dissolved in 100% DMSO at the concentration of 10 mM. The HPK1 protein was purchased from Signal Chem (M23-11G-10). 2.5 μL per well of 2×HPK1 protein was added to assay plate containing the test compound, centrifuged at 1500 rpm for 1 minute, and then incubated at 25° C. for 60 minutes. MBP protein was purchased from Signal Chem (M42-51N) and ATP was purchased from Promega (V9102). The two were added 2.5 μL per well mixture of 2×MBP (0.2 ug/ul) and ATP (20 μM), centrifuged at 1500 rpm for 1 minute, then incubated at 25° C. for 60 minutes. Then added 5 μL of ADP-Glo from Promega (V9102) to the assay plate and depleted the unconsumed ATP for 60 minutes. Then centrifuged at 1500 rpm for 1 minute and incubated at 25° C. for 60 minutes. Finally, 10 μL of the kinase assay reagent from Promega (V9102) was added to the assay plate to convert ADP to ATP, centrifuged at 1500 rpm for 1 minute, incubate at 25° C. for 40 minutes. After 40 minutes incubation, the […] was determined. Based on the results, the IC50 value of the compound was calculated.
Background: ADP-Glo first removes unused ATP, then detects ADP through luciferase.

Experiment [1] concerns HPK1 p-SLP-76 in Jurkat cells. Briefly: HPK1 p-SLP-76 inhibition assay in Jurkat cells (HTRF). It is filed as cell-based. To be noted: Homo sapiens, 4 h compound, anti-CD3 stimulation 20 min. On the procedure: Before compound treatment, Jurkat cells were starved in PRMI-1640 medium supplemented with 0.5% FBS overnight. The cell density was adjusted to 1*10^7 cells/mL in assay medium (RPMI-1640 no phenol red with 0.5% FBS) and 16 uL cell suspension was transferred per well to a 384-well plate (Corning #3765). […] of test compound was prepared in assay medium and 4 uL was added per well to the 384-well plate. The plate was then incubated at 37° C., 5% CO2 for 4 h. Jurkat cells in 384-well plate were stimulated with anti-CD3 (BD Biosciences #555329, final conc. is 10 ug/mL) for 20 min at 37° C., 5% CO2 by adding 4 uL 6× antibody solution per well. Phospho-SLP76 HTRF kit was purchased from Cisbio (63ADK076PEH). 8 uL 4× Lysis Buffer was added to 384-well plate after anti-CD3 stimulation. The plate was centrifuged at 1,000 rpm for 1 min, shaken at 250 rpm for 60 min and centrifuged again at 1,000 rpm for 5 min. Afterwards the cell lysates were transferred to the assay plate (Greiner #784075) with 16 uL per well. 4 uL detection antibody mix per well prepared in Detection Buffer was added to the assay plate, followed by centrifugation at 1,000 rpm for 1 min and incubation at 25° C. overnight. The fluorescence emission at two different wavelengths (665 nm and 620 nm) was read by an HTRF compatible microplate reader and the IC50 value of the compound was calculated.
For orientation: In TR-FRET formats the signal depends on donor and acceptor labels being close together.

As a reminder, the IC50 is the midpoint of a concentration-inhibition curve. A high value points to lower potency. On to `CCc1c[nH]c2ncc(-c3cccc(N4CCCC(CO)C4=O)c3)c(Cl)c12` (racemic) [Example 22, 1-(3-(4-chloro-3-ethyl-1H-pyrrolo[2,3-b]pyridin-5-yl)phenyl)-3-(hydroxymethyl)piperidin-2-one], for which the IC50 against HPK1 is at most 10 nM; in experiment [1], 300 to 3000 nM.

As for `CCc1c[nH]c2ncc(-c3cccc(N4CCNCC4=O)c3)c(Cl)c12` [Example 1, 1-(3-(4-chloro-3-ethyl-1H-pyrrolo[2,3-b]pyridin-5-yl)phenyl)piperazin-2-one], the IC50 on HPK1 was at most 10 nM; in experiment [1], 300 to 3000 nM.

As for `COC(=O)c1c[nH]c2ncc(-c3cccc(N4CCNCC4=O)c3)c(Cl)c12` [Example 2, Methyl 4-chloro-5-(3-(2-oxopiperazin-1-yl)phenyl)-1H-pyrrolo[2,3-b]pyridine-3-carboxylate], the IC50 at HPK1 is 100 to 1000 nM; in experiment [1], over 10000 nM.

With `CC(C)(C)C#Cc1c[nH]c2ncc(-c3cccc(N4CCNCC4=O)c3)c(Cl)c12` [Example 3, 1-(3-(4-chloro-3-(3,3-dimethylbut-1-yn-1-yl)-1H-pyrrolo[2,3-b]pyridin-5-yl)phenyl) piperazin-2-one], the IC50 was 100 to 1000 nM against HPK1 and 300 to 3000 nM in experiment [1].

Regarding `O=C1CNCCN1c1cccc(-c2cnc3[nH]cc(C4CC4)c3c2Cl)c1` [Example 4, 1-(3-(4-chloro-3-cyclopropyl-1H-pyrrolo[2,3-b]pyridin-5-yl)phenyl) piperazin-2-one], the IC50 was at most 10 nM on HPK1 and 300 to 3000 nM in experiment [1].

With `O=C1CNCCN1c1cccc(-c2cnc3[nH]cc(C#CC4CC4)c3c2Cl)c1` [Example 5, 1-(3-(4-chloro-3-(cyclopropylethynyl)-1H-pyrrolo[2,3-b]pyridin-5-yl)phenyl) piperazin-2-one], the concentration for half-maximal inhibition (IC50) was at most 10 nM on HPK1 and over 10000 nM in experiment [1].

Consider `O=C1CNCCN1c1cccc(-c2cnc3[nH]cc(C#Cc4cccnc4)c3c2Cl)c1` [Example 6, 1-(3-(4-chloro-3-(pyridin-3-ylethynyl)-1H-pyrrolo[2,3-b]pyridin-5-yl)phenyl)piperazin-2-one], for which the IC50 at HPK1 was 10 to 100 nM; in experiment [1], 300 to 3000 nM.

Regarding `CN(C)CC#Cc1c[nH]c2ncc(-c3cccc(N4CCNCC4=O)c3)c(Cl)c12` [Example 8, 1-(3-(4-chloro-3-(3-(dimethylamino)prop-1-yn-1-yl)-1H-pyrrolo[2,3-b]pyridin-5-yl)phenyl)piperazin-2-one], the values for the IC50 (against HPK1; in experiment [1]) were over 1000 nM and over 10000 nM, respectively.

Take `CCc1c[nH]c2ncc(-c3cccc(N4CCNCC4=O)n3)c(Cl)c12` [Example 9, 1-(6-(4-chloro-3-ethyl-1H-pyrrolo[2,3-b]pyridin-5-yl)pyridin-2-yl)piperazin-2-one]: the figures for the half-maximal inhibitory concentration (IC50) (at HPK1; in experiment [1]) were at most 10 nM and 300 to 3000 nM, respectively.

Turning to `CCc1c[nH]c2ncc(-c3csc(N4CCNCC4=O)n3)c(Cl)c12` [Example 10, 1-(4-(4-chloro-3-ethyl-1H-pyrrolo[2,3-b]pyridin-5-yl)thiazol-2-yl)piperazin-2-one], the IC50 lay within 10 to 100 nM against HPK1 and 300 to 3000 nM in experiment [1].

Turning to `O=C1CNCCN1c1nc(-c2cnc3[nH]cc(C4CC4)c3c2Cl)cs1` [Example 11, 1-(4-(4-chloro-3-cyclopropyl-1H-pyrrolo[2,3-b]pyridin-5-yl)thiazol-2-yl)piperazin-2-one], the results for the IC50 (on HPK1; in experiment [1]) were 10 to 100 nM and 3000 to 10000 nM, respectively.

As for `O=C1CNCCN1c1cccc(-c2cnc3[nH]cc(CC(F)F)c3c2Cl)c1` [Example 12, 1-(3-(4-chloro-3-(2,2-difluoroethyl)-1H-pyrrolo[2,3-b]pyridin-5-yl)phenyl)piperazin-2-one], the figures for the half-maximal inhibitory concentration (IC50) (on HPK1; in experiment [1]) were at most 10 nM and 300 to 3000 nM, respectively.

`Cc1ccc(C#Cc2c[nH]c3ncc(-c4cccc(N5CCNCC5=O)c4)c(Cl)c23)cn1` [Example 13, 1-(3-(4-chloro-3-((6-methylpyridin-3-yl)ethynyl)-1H-pyrrolo[2,3-b]pyridin-5-yl)phenyl)piperazin-2-one]: the IC50 against HPK1 is 10 to 100 nM; in experiment [1], 3000 to 10000 nM.
